# Counter-ions that a name gives are not always drawn.
# Molecular target: human factor Xa (FXa) (Homo sapiens, UniProt P00742)
# Assay: Determination of the factor Xa inhibition (chromogenic substrate)
# Type: biochemical
# Details: human FXa 0.5 nmol/l, 150 μmol/l Pefachrome FXa, 25° C., extinction at 405 nm
# Method: a. 1) Determination of the Factor Xa Inhibition:
# The enzymatic action of human factor Xa (FXa) is measured using the conversion of a chromogenic substrate specific for FXa. Factor Xa cleaves p-nitroaniline from the chromogenic substrate. The determinations are carried out in microtiter plates as follows:
# The test substances, in various concentrations, are dissolved in DMSO and incubated for 10 minutes at 25° C. with human FXa (0.5 nmol/l dissolved in 50 mmol/l of tris buffer [C,C,C-tris(hydroxymethyl)aminomethane], 150 mmol/l of NaCl, 0.1% BSA [bovine serum albumin], pH=8.3). Pure DMSO is used as control. The chromogenic substrate (150 μmol/l Pefachrome® FXa from Pentapharm) is then added. After an incubation time of 20 minutes at 25° C., the extinction at 405 nm is determined.
# Sequence of human factor Xa (FXa) (P00742 235-488 limits assumed): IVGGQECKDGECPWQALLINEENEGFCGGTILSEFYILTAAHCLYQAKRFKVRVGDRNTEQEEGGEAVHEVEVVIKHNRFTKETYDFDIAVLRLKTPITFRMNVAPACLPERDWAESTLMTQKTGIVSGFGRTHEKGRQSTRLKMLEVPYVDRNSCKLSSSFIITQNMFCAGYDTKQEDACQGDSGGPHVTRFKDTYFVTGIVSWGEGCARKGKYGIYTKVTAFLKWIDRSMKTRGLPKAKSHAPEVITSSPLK
# Sequence of human factor Xa (FXa) (P00742 41-179 partner limits assumed): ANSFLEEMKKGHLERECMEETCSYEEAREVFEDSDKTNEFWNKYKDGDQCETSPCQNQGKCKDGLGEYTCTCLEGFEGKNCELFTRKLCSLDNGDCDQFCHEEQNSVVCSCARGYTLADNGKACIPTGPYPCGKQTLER
row,IC50 [µM],SMILES
1,0.032,"O=C(O)COCCNc1ccc(N2C[C@H](CNC(=O)c3ccc(Cl)s3)OC2=O)cc1 [Example 1, 2-({4-[(5S)-5-({[(5-Chloro-2-thienyl)carbonyl]amino}methyl)-2-oxo-1,3-oxazolidin-3-yl]phenyl}-amino)ethoxy]acetic acid hydrochloride]"
2,0.066,"O=C(O)COCCN(C(=O)c1ccc(Cl)s1)c1ccc(N2C[C@H](CNC(=O)c3ccc(Cl)s3)OC2=O)cc1 [Example 3, [2-([(5-Chloro-2-thienyl)carbonyl]{4-[(5S)-5-({[(5-chloro-2-thienyl)carbonyl]amino}methyl)-2-oxo-1,3-oxazolidin-3-yl]phenyl}amino)ethoxy]acetic acid]"
3,0.059,"CC(C)CNC(=O)N(CCOCC(=O)O)c1ccc(N2C[C@H](CNC(=O)c3ccc(Cl)s3)OC2=O)cc1 [Example 4, {2-[{4-[(5S)-5-({[(5-Chloro-2-thienyl)carbonyl]amino}methyl)-2-oxo-1,3-oxazolidin-3-yl]phenyl}-(isobutylcarbamoyl)amino]ethoxy}acetic acid]"

# Reference: patent publication US7932278B2, “2-aminoethoxyacetic acid derivatives and their use” (Bayer Schering Pharma Aktiengesellschaft, priority 2005, dated 2011)
